Target: T1, proMMP9 (Rattus norvegicus, UniProt P50282)
T1 construct: endogenous in cells; host or cells: primary synoviocytes from arthritic female Lewis rats
Assay: Activation of proMMP9 in rat synoviocyte cultures (Western blot)
Type: cell-based
Details: for Signal of 80 kD band (INT*mm^2): final 48 hrs, TNFα-stimulated, pAb-1246; for 80 kD active MMP9 form detected with mAb L51/82 / 80 kD active MMP9 detected with pAb-1246: 0.37-10 μM; for 80 kD active MMP9 form detected with mAb L51/82: FIG. 1A; for 80 kD active MMP9 detected with pAb-1246: FIG. 1B
Text: A primary synoviocytes line was derived from the periarticular tissue of arthritic rats. Arthritis was induced in female Lewis rats following an i.p. administration of streptococcal cell wall peptidoglycan polysaccharides (J Exp Med 1977; 146:1585-1602). Rats with established arthritis were sacrificed, and hind-limbs were severed, immersed briefly in 70% ethanol, and placed in a sterile hood. The skin was removed and the inflamed tissue surrounding the tibia-tarsal joint was harvested using a scalpel. Tissue from six rats was pooled, minced to approximately 8 mm^3 pieces, and cultured in Dulbecco's Modified Eagle's Medium (DMEM) containing 15% fetal calf serum (FCS). In the following weeks, cells migrated out of the tissue piece, proliferated, and formed a monolayer of adherent cells. The synoviocytes were lifted from culture plates with 0.05% trypsin and passaged weekly at 1:4 ratios in DMEM containing 10% FCS. Synoviocytes were used at passage 9 to investigate the ability of Compound-α to inhibit the maturation of MMP9 to active form.
Rat synoviocytes spontaneously expressed and activated MMP9 when cultured in collagen gels and stimulated with tumor necrosis factor-alpha (TNFα) (FIG. 1 and Table 3). Eight volumes of an ice-cold solution of 3.8 mg/mL rat tail collagen (Sigma Cat #C3867-1VL) were mixed with 1 volume of 1 M sodium bicarbonate and 1 volume of 10× Roswell Park Memorial Institute medium. The pH of the mixture was adjusted to pH 7 with 1 N sodium hydroxide and equal volumes of the pH-adjusted collagen solution were mixed with DMEM containing 0.8 million synoviocytes per mL. One half mL volumes were dispensed into Costar 24-well culture dishes and placed for one hr at 37° C. and 5% CO2, during which time the collagen solution formed a gel. Individual gels were dislodged into wells of 12-well Costar plates containing 1 mL/well of DMEM adjusted to contain 0.05% BSA and 100 ng/mL mouse TNFα (R&D Systems Cat #410-MT-010). […] After overnight culture at 37° C. and 5% CO2, wells were adjusted to contain an additional 0.5 mL of DMEM containing 0.05% BSA and Compound-α at 4× the final desired concentration (final culture volumes were 2 mL). The plates were cultured an additional 48 hrs, at which time 1 mL of conditioned media were harvested into fresh eppendorf tubes containing 40 μL/mL of a 50% slurry of gelatin-conjugated sepharose (GE Healthcare Cat #17-0956-01). Samples were rotated for 2 hrs at 4° C. before centrifugation 1 min×200 g. Supernatants were discarded. The gelatin-sepharose pellets were washed once with 1 mL of ice cold DMEM, resuspended in 50 μL of 2× reducing Leamli buffer and heated 5 min at 95° C. Fifteen μL of eluted proteins were resolved on 4-12% NuPAGE gels and transferred to 0.45 μm pore-sized nitrocellose blots. Next, blots were incubated in blocking buffer (5% milk in Tris-buffered saline containing 0.1% Tween-20) for 1 hr at RT and probed overnight (4° C.) with blocking buffer containing 1 μg/mL primary antibodies. Blots were next probed 1 hr at RT with 1/10,000 dilutions of goat anti-mouse IgG-HRP or goat anti-rabbit IgG-HRP (Santa Cruz) in blocking buffer and developed using SuperSignal® West Fempto Maximum Sensitivity Substrate. Chemiluminesence signal was analyzed using a ChemiDoc imaging system (BioRad Laboratories) and Quantity One® image software. Electrophoretic mobility was estimated based on the mobility of standards (Novex Sharp Pre-Stained Protein Standards P/N 57318).
Mouse mAb-L51/82 (UC Davis/NIH NeuroMab Facility, Antibody Incorporated) was used to detect pro and processed forms of MMP9. Synoviocyte-conditioned media contained an approximately 80 kD form of MMP9 (FIG. 1A, lane 2). […] The 86 kD form was predominant in the presence of 10 μM Compound-α (FIG. 1A, lane 6). Lane 1 was loaded with a standard containing 3 ng of full-length rat proMMP9(1-708) (SEQ ID NO:11) and 3 ng of full-length rat proMMP9(1-708) (SEQ ID NO:11) converted to catalytic rat MMP9 by catalytic MMP3. […]

T1 sequence (P50282 20-708 limits assumed): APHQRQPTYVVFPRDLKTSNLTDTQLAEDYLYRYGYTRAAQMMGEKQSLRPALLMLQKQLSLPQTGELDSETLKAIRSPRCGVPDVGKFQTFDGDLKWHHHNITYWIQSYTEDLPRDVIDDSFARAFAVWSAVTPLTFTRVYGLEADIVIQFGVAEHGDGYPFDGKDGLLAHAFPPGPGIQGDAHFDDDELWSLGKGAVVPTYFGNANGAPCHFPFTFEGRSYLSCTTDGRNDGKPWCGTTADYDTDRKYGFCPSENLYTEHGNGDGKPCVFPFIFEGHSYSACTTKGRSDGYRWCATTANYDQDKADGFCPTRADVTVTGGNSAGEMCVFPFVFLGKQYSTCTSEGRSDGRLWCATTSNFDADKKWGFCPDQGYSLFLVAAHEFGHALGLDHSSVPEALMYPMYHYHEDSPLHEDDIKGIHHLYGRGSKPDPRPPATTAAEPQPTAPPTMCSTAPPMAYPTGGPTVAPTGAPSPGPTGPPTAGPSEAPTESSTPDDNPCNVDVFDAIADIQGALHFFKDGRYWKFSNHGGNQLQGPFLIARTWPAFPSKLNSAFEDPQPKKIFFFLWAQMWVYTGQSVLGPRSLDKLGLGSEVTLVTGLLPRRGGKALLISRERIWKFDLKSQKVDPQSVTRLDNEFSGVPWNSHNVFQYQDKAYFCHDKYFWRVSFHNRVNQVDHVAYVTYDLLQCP

Question: `Cc1nc(C)c(-c2csc(Nc3cc(S(N)(=O)=O)ccc3OC(C)C)n2)s1` [Compound-α, 3-(2′,4′-Dimethyl-[4,5′]bithiazolyl-2-ylamino)-4-isopropoxy-benzenesulfonamide.HBr] was tested. Which “Signal of 80 kD band (INT*mm^2)” value (0.37 μM) did it give?
Answer: 74381 INT*mm^2

Question: What about the “Signal of 80 kD band (INT*mm^2)” value (1.1 μM) of the same compound?
Answer: 45381 INT*mm^2

Question: And the “Signal of 80 kD band (INT*mm^2)” value (3.3 μM)?
Answer: 11554 INT*mm^2

Question: And the “Signal of 80 kD band (INT*mm^2)” value (10 μM)?
Answer: 2578 INT*mm^2

Question: What about the “80 kD active MMP9 form detected with mAb L51/82” value of the same compound?
Answer: reduced in a dose dependent fashion

Question: What about the “80 kD active MMP9 form detected with mAb L51/82” value (listed as Compound a) of the same compound?
Answer: dose-dependent reduction in the appearance of the 80 kD active form of MMP9

Question: What about the “80 kD active MMP9 detected with pAb-1246” value of the same compound?
Answer: dose-dependent reduction in active MMP9

Question: And the “80 kD active MMP9 detected with pAb-1246” value (listed as Compound α)?
Answer: dose-dependent reduction in the appearance of the 80 kD active form of MMP9

Reference: patent publication US20120129897A1, “BIS HETEROARYL INHIBITORS OF PRO-MATRIX METALLOPROTEINASE ACTIVATION” (priority 2010, published 2012)
